According to the NIST ThermoML archive (doi:10.1007/s10765-013-1539-3):

Experiment: wn = mass fraction of the nth substance listed
Settings: Gas, Steady Flow

[HH] [hydrogen] + C
binary diffusion coefficient [m2/s], w1 = 0.5
Settings	250 K	280 K	320 K	400 K	480 K	560 K	640 K	720 K	800 K	900 K
100 kPa	5.3e-05	6.6e-05	8.3e-05	0.000124	0.000173	0.000227	0.00029	0.00036	0.000434	0.00054
4000 kPa	1.32e-05	1.84e-05	2.31e-05	3.62e-05	5.1e-05	6.7e-05	8.4e-05	0.000106	0.000129	0.000159
7000 kPa	6.3e-06	8.5e-06	1.17e-05	1.82e-05	2.52e-05	3.43e-05	4.35e-05	5.4e-05	6.5e-05	8.1e-05
10000 kPa	3.8e-06	5.4e-06	7.5e-06	1.2e-05	1.72e-05	2.3e-05	2.93e-05	3.61e-05	4.41e-05	5.42e-05
15000 kPa	2.91e-06	4.05e-06	5.8e-06	9.5e-06	1.36e-05	1.79e-05	2.28e-05	2.81e-05	3.37e-05	4.11e-05

[HH] [hydrogen] + N#N
binary diffusion coefficient [m2/s], w1 = 0.5
Settings	250 K	300 K	350 K	400 K	500 K	600 K	700 K	800 K	900 K
100 kPa	5.86e-05	8e-05	0.000104	0.000131	0.000192	0.000261	0.00034	0.000427	0.000523
4000 kPa	1.52e-05	2.04e-05	2.68e-05	3.37e-05	4.95e-05	6.8e-05	8.8e-05	0.00011	0.000134
7000 kPa	8.8e-06	1.24e-05	1.63e-05	2.05e-05	3.01e-05	4.1e-05	5.32e-05	6.65e-05	8.11e-05
10000 kPa	6e-06	8.5e-06	1.13e-05	1.41e-05	2.07e-05	2.82e-05	3.65e-05	4.56e-05	5.55e-05
15000 kPa	4.21e-06	6e-06	7.9e-06	9.8e-06	1.45e-05	1.96e-05	2.51e-05	3.15e-05	3.8e-05

[C-]#[O+] [carbon monoxide] + [HH]
binary diffusion coefficient [m2/s], w2 = 0.5
Settings	250 K	300 K	350 K	400 K	500 K	600 K	700 K	800 K	900 K
100 kPa	5.6e-05	7.7e-05	0.000101	0.000127	0.000188	0.000258	0.000337	0.000425	0.000522
4000 kPa	1.32e-05	1.96e-05	2.58e-05	3.28e-05	4.84e-05	6.6e-05	8.7e-05	0.000109	0.000134
7000 kPa	8e-06	1.16e-05	1.52e-05	1.96e-05	2.89e-05	3.97e-05	5.14e-05	6.5e-05	7.9e-05
10000 kPa	5.6e-06	8.1e-06	1.09e-05	1.38e-05	2.03e-05	2.79e-05	3.63e-05	4.55e-05	5.58e-05
15000 kPa	4e-06	5.6e-06	7.4e-06	9.4e-06	1.42e-05	1.96e-05	2.63e-05	3.35e-05	4.2e-05

[HH] [hydrogen] + CC
binary diffusion coefficient [m2/s], w1 = 0.5
Settings	250 K	280 K	320 K	400 K	480 K	560 K	640 K	720 K	800 K	900 K
100 kPa	4.29e-05	5.2e-05	6.5e-05	9.5e-05	0.000131	0.00017	0.000212	0.000261	0.000313	0.000382
3500 kPa	–	–	1.46e-05	2.53e-05	3.6e-05	4.81e-05	6.2e-05	7.6e-05	9.1e-05	0.00011
7000 kPa	–	–	3.3e-06	1.15e-05	1.75e-05	2.4e-05	3.1e-05	3.81e-05	4.61e-05	5.59e-05
10500 kPa	–	–	2.4e-06	6.8e-06	1.13e-05	1.58e-05	2.04e-05	2.52e-05	3e-05	3.72e-05
14000 kPa	–	–	2.21e-06	5e-06	8.6e-06	1.2e-05	1.58e-05	1.94e-05	2.33e-05	2.83e-05

[HH] [hydrogen] + CCC
binary diffusion coefficient [m2/s], w1 = 0.5
Settings	250 K	280 K	320 K	400 K	480 K	560 K	640 K	720 K	800 K	900 K
100 kPa	3.28e-05	4.01e-05	5e-05	7.4e-05	0.000101	0.000131	0.000164	0.0002	0.00024	0.000292
3500 kPa	–	–	–	1.6e-05	2.58e-05	3.56e-05	4.57e-05	5.63e-05	6.8e-05	8.3e-05
7000 kPa	–	–	–	4.5e-06	1.14e-05	1.7e-05	2.21e-05	2.78e-05	3.37e-05	4.24e-05
10500 kPa	–	–	–	2.98e-06	6.8e-06	1.07e-05	1.47e-05	1.83e-05	2.23e-05	2.83e-05
14000 kPa	–	–	–	2.72e-06	4.9e-06	7.89e-06	1.08e-05	1.37e-05	1.65e-05	2.04e-05
